For 49 compounds, Ki, Kis and IC50 results are on record in ChEMBL document CHEMBL5104090, “Recent advances in the medicinal chemistry of carbonic anhydrase inhibitors” (Eur J Med Chem, 2021).

Molecules are shown by their SMILES.

Assay [1] has as its target T1, Carbonic anhydrase 2 (Homo sapiens, UniProt P00918).
Assay [2] addresses T2, Carbonic anhydrase 1 (Homo sapiens, UniProt P00915).
Assay [3] concerns the target T3, Carbonic anhydrase 9 (Homo sapiens, UniProt Q16790).
For assay [4], the target named is T4, Carbonic anhydrase 12 (Homo sapiens, UniProt O43570).
In assay [5] the target is T2, Carbonic anhydrase 1. The source holds these as a separate data set.
Assay [6] has as its target T2, Carbonic anhydrase 1. This is another data set of the same source.
Assay [7] concerns the target T1, Carbonic anhydrase 2. The source holds these as a separate data set.
In assay [8] the target is Carbonic anhydrase 7 (Homo sapiens, UniProt P43166).
For assay [9], the target named is T3, Carbonic anhydrase 9. This is another data set of the same source.
Assay [10] concerns the target T3, Carbonic anhydrase 9. The source holds these as a separate data set.
Assay [11] addresses T2, Carbonic anhydrase 1. This is another data set of the same source.
The target in assay [12] is T4, Carbonic anhydrase 12. This is another data set of the same source.
Assay [13] has as its target T1, Carbonic anhydrase 2. This is another data set of the same source.
Assay [14] concerns the target T3, Carbonic anhydrase 9. This is another data set of the same source.

T4 sequence (O43570 whole entry): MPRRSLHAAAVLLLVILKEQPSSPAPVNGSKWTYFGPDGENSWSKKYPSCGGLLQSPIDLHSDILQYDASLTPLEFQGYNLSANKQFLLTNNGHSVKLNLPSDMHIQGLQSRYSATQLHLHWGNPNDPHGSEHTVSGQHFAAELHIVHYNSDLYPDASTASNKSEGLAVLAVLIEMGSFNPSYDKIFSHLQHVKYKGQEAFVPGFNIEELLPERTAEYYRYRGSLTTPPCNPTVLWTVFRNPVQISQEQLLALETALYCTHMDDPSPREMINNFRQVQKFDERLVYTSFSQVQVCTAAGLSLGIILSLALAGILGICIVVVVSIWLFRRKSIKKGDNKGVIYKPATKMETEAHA
Carbonic anhydrase 7, sequence (P43166 whole entry): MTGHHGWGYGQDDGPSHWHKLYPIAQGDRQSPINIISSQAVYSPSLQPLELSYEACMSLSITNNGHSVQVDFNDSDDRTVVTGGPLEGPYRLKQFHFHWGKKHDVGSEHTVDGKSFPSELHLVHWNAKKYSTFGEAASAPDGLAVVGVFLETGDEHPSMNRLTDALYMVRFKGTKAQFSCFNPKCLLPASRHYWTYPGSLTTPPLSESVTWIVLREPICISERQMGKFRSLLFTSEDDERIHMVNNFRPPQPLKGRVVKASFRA
T2 sequence (P00915 whole entry): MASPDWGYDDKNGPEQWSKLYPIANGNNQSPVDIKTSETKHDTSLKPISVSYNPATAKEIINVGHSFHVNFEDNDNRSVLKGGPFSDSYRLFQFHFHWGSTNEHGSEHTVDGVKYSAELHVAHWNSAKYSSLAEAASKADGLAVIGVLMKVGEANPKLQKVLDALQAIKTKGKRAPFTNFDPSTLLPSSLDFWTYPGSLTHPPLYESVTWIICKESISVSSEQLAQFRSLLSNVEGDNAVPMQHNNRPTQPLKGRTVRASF

A word on the Ki: it is a measure of affinity in units of concentration, obtained from inhibition or displacement. In the case of `NS(=O)(=O)c1ccc(N2N=C(c3cccs3)CC2c2cccs2)cc1` (stereo not given), the Ki in assay [1] was found to be 37.3 nM; in assay [2], 24.2 nM.

As for `COc1ccc(/C=C2/SC(=O)N(CC(=O)O)C2=O)cc1`, the figures for the Ki in assay [3] and in [5] were 3100 nM and greater than 100000 nM, respectively. In addition, in assay [4], the Kis was determined as 0.3 µM.

With `O=[N+]([O-])c1ccccc1-n1nc(-c2ccccc2)c(/N=N/c2ccc(Br)cc2)c1-c1ccccc1`, the figures for the Ki in [6] and in [7] were 1.06 nM and 0.68 nM, respectively.

For the compound `O=C(O)CN1C(=O)S/C(=C/c2ccccc2)C1=O`, the Kis in assay [4] is 0.3 µM. The compound also had a Ki in assay [5] greater than 100000 nM.

Take `COc1ccccc1[SeH]`: in [8], the affinity corresponds to a Ki of 760 nM.

Take `NS(=O)(=O)c1ccc(C(=O)NN2C(=O)c3cc(Cl)c(Cl)cc3C2=O)cc1`: in assay [9], the Kis is 3 nM.

Turning to `NS(=O)(=O)c1ccc(C(=O)NN2C(=O)c3c(Br)c(Br)c(Br)c(Br)c3C2=O)cc1`, the Kis in assay [9] was 3 nM.

As to `[SeH]c1ccccc1`, the figures for the Ki in assay [10] and in [8] were 180 nM and 760 nM, respectively.

In the case of `Cc1ccccc1[SeH]`, in [8], the Ki is 760 nM.

In general, IC50 refers to the concentration at which inhibition is half-maximal. A low value points to inhibition by little substance. Regarding `Cn1c(-c2ccccc2)nc2cc(S(N)(=O)=O)ccc21`, the IC50 in assay [11], in assay [12], in assay [13] and in assay [14] was greater than 360 nM in each case.

In the case of `Fc1ccc([SeH])cc1`, the values for the Ki in assay [10] and in assay [8] were 180 nM and 760 nM, respectively.

Consider `Cn1c(-c2ccc(B(O)O)cc2)nc2ccccc21`, for which the IC50 in [11], in [12], in [13] and in assay [14] was greater than 360 nM throughout.

As for `[SeH]c1ccc2ccccc2c1`, the Ki in assay [10] amounted to 460 nM; in assay [8], 760 nM.

Regarding `O=C(O)CN1C(=O)S/C(=C/c2ccccc2Cl)C1=O`, the Kis in assay [4] stood at 0.3 µM. In [5], this compound yielded a Ki greater than 100000 nM.

Consider `NS(=O)(=O)c1ccc2[nH]c(-c3ccccc3)nc2c1`, for which the IC50 in [11], in [12], in assay [13] and in assay [14] was greater than 360 nM throughout.

For `Cc1ccc(C2CC(c3cccs3)=NN2c2ccc(S(N)(=O)=O)cc2)cc1` (stereo not given), the results for the Ki in assay [1] and in [2] were 37.3 nM and 24.2 nM, respectively.

Consider `NS(=O)(=O)c1ccc(C(=O)NN2C(=O)c3cccc4cc([N+](=O)[O-])cc(c34)C2=O)cc1`, for which the Kis in assay [9] was determined as 3 nM.

As for `Cn1c(-c2ccccc2)nc2cc(C(=O)O)ccc21`, the IC50 in assay [11], in [12], in assay [13] and in assay [14] was greater than 360 nM each time.

As for `COc1ccc(C2CC(c3cccs3)=NN2c2ccc(S(N)(=O)=O)cc2)cc1OC` (stereo not given), the Ki in assay [1] was found to be 37.3 nM; in assay [2], 24.2 nM.

`Cn1c(-c2ccccc2)nc2cc(C(=O)NO)ccc21`: the IC50 in [11], in assay [12], in [13] and in [14] was greater than 360 nM in each case.

With `NS(=O)(=O)c1ccc(N2N=C(c3cccs3)CC2c2ccccc2)cc1` (stereo not given), the Ki in assay [1] is 80.6 nM; in assay [2], 24.2 nM.

As for `Cc1ccc(/C=C2/SC(=O)N(CC(=O)O)C2=O)cc1`, the Ki in assay [3] and in assay [5] was greater than 100000 nM each time. In [4], this compound came in with a Kis of 0.3 µM.

With `Brc1ccc(/N=N/c2c(-c3ccccc3)nn(-c3ccccc3)c2-c2ccccc2)cc1`, the Ki was 1.06 nM in assay [6] and 0.68 nM in [7].

On to `CCn1nc(-c2ccccc2)c(/N=N/c2ccc(Br)cc2)c1-c1ccccc1`, for which the Ki amounted to 1.06 nM in assay [6] and 0.68 nM in [7].

Regarding `Cn1c(-c2ccc(Cl)cc2)nc2cc(C(N)=O)ccc21`, the IC50 in [11], in assay [12], in assay [13] and in assay [14] was greater than 360 nM in each case.

For `COc1cccc([SeH])c1`, the Ki in assay [10] was found to be 280 nM; in assay [8], 760 nM.

Take `COc1ccc(C2CC(c3cccs3)=NN2c2ccc(S(N)(=O)=O)cc2)cc1` (stereo not given): the Ki in [1] was 37.3 nM; in assay [2] it was 24.2 nM.

The compound `Cc1cccc(C)c1[SeH]` came in with a Ki in [8] of 760 nM.

Take `Cn1c(-c2ccccn2)nc2cc(S(N)(=O)=O)ccc21`: the IC50 in assay [11] is greater than 360 nM; in [12], 9.9 nM; in assay [13] it was greater than 360 nM; in assay [14], 6.6 nM.

`NS(=O)(=O)c1ccc(C(=O)NN2C(=O)c3cccc4cccc(c34)C2=O)cc1` yielded a Kis in assay [9] of 3 nM.

With `O=C(O)CN1C(=O)S/C(=C/c2ccc(Br)cc2)C1=O`, in assay [4], the Kis came out at 0.3 µM. This compound registered an inhibitory constant (Ki) in assay [5] greater than 100000 nM.

On to `NS(=O)(=O)c1ccc2[nH]c(-c3ccc(Cl)cc3)nc2c1`, for which the IC50 in [11], in assay [12], in [13] and in [14] was greater than 360 nM in each case.

In the case of `NS(=O)(=O)c1ccc(N2N=C(c3cccs3)CC2c2ccc(F)cc2)cc1` (stereo not given), the Ki worked out at 37.3 nM in assay [1] and 24.2 nM in [2].

For `Cn1nc(-c2ccccc2)c(/N=N/c2ccc(Br)cc2)c1-c1ccccc1`, the Ki in assay [6] is 1.06 nM; in [7] it was 0.68 nM.

As to `NS(=O)(=O)c1ccc(N2N=C(c3cccs3)CC2c2ccc(C(F)(F)F)cc2)cc1` (stereo not given), the Ki in assay [1] is 37.3 nM; in [2], 24.2 nM.

With `COc1ccc([SeH])cc1`, the Ki in [10] was determined as 180 nM; in [8], 760 nM.

In assay [9], `NS(=O)(=O)c1ccc(C(=O)NN2C(=O)c3c(Cl)c(Cl)c(Cl)c(Cl)c3C2=O)cc1` gave a Kis of 3 nM.

Turning to `Brc1ccc(/N=N/c2c(-c3ccccc3)nn(-c3ccc(Br)cc3)c2-c2ccccc2)cc1`, the Ki in [6] was 1.06 nM; in [7], 0.68 nM.

In the case of `NS(=O)(=O)c1ccc(C(=O)NN2C(=O)c3ccccc3C2=O)cc1`, the Kis in [9] was determined as 3 nM.

Take `Cn1c(-c2ccccc2)nc2cc(B(O)O)ccc21`: the IC50 in assay [11], in [12], in [13] and in [14] was greater than 360 nM throughout.

With `Cn1c(-c2ccc(Cl)cc2)nc2cc(B(O)O)ccc21`, the IC50 in assay [11], in assay [12], in assay [13] and in [14] was greater than 360 nM in each case.

As for `Cc1ccc(-n2nc(-c3ccccc3)c(/N=N/c3ccc(Br)cc3)c2-c2ccccc2)cc1C`, the Ki amounted to 1.06 nM in [6] and 0.68 nM in [7].

As to `Cc1ccc(C)c(-n2nc(-c3ccccc3)c(/N=N/c3ccc(Br)cc3)c2-c2ccccc2)c1`, the inhibition constant (Ki) in assay [6] is 1.06 nM; in [7], 0.68 nM.

Take `Cn1c(-c2ccc(Cl)cc2)nc2cc(C(=O)NO)ccc21`: the IC50 in [11], in assay [12], in assay [13] and in assay [14] was greater than 360 nM each time.

On to `NS(=O)(=O)c1ccc(N2N=C(c3cccs3)CC2c2ccc(Cl)cc2)cc1` (stereo not given), for which the Ki in [1] was found to be 37.3 nM; in assay [2], 24.2 nM.

`Brc1ccc(NN=C2C(c3ccccc3)=NN=C2c2ccccc2)cc1`: the Ki in assay [6] was 1.06 nM; in assay [7], 0.68 nM.

On to `COc1ccc(C2CC(c3cccs3)=NN2c2ccc(S(N)(=O)=O)cc2)c(OC)c1` (stereo not given), for which the values for the Ki in [1] and in assay [2] were 37.3 nM and 24.2 nM, respectively.

`NS(=O)(=O)c1ccc2[nH]c(-c3ccccn3)nc2c1`: the IC50 in assay [11], in assay [12], in assay [13] and in assay [14] was greater than 360 nM throughout.

`Cc1ccc([SeH])cc1`: the figures for the Ki in assay [10] and in assay [8] were 180 nM and 760 nM, respectively.
